{
  "source": "PubChem BioAssay (NCI)",
  "test_in_all_cases": "NCI-60 cell line screen, 48 h",
  "key": {"OVCAR-5 ovarian": {"test_system": "OVCAR-5 ovarian"}, "MDA-MB-231 breast": {"test_system": "MDA-MB-231 breast"}, "ACHN renal": {"test_system": "ACHN renal"}, "MOLT-4 leukemia": {"test_system": "MOLT-4 leukemia"}, "DU-145 prostate": {"test_system": "DU-145 prostate"}, "HCC-2998 colon": {"test_system": "HCC-2998 colon"}, "MDA-MB-468 breast": {"test_system": "MDA-MB-468 breast"}, "HT29 colon": {"test_system": "HT29 colon"}, "786-0 renal": {"test_system": "786-0 renal"}, "OVCAR-4 ovarian": {"test_system": "OVCAR-4 ovarian"}, "SNB-19 CNS": {"test_system": "SNB-19 CNS"}, "SN12C renal": {"test_system": "SN12C renal"}, "COLO 205 colon": {"test_system": "COLO 205 colon"}, "OVCAR-8 ovarian": {"test_system": "OVCAR-8 ovarian"}, "U251 CNS": {"test_system": "U251 CNS"}, "NCI/ADR-RES ovarian": {"test_system": "NCI/ADR-RES ovarian"}, "SF-268 CNS": {"test_system": "SF-268 CNS"}, "SK-OV-3 ovarian": {"test_system": "SK-OV-3 ovarian"}, "HOP-92 NSCLC": {"test_system": "HOP-92 NSCLC"}, "SW-620 colon": {"test_system": "SW-620 colon"}, "CCRF-CEM leukemia": {"test_system": "CCRF-CEM leukemia"}, "SF-539 CNS": {"test_system": "SF-539 CNS"}, "NCI-H226 lung": {"test_system": "NCI-H226 lung"}, "NCI-H522 lung": {"test_system": "NCI-H522 lung"}, "UACC-62 melanoma": {"test_system": "UACC-62 melanoma"}, "K-562 leukemia": {"test_system": "K-562 leukemia"}, "A498 renal": {"test_system": "A498 renal"}, "SK-MEL-28 melanoma": {"test_system": "SK-MEL-28 melanoma"}, "EKVX NSCLC": {"test_system": "EKVX NSCLC"}, "PC-3 prostate": {"test_system": "PC-3 prostate"}, "SNB-75 CNS": {"test_system": "SNB-75 CNS"}, "UO-31 renal": {"test_system": "UO-31 renal"}, "UACC-257 melanoma": {"test_system": "UACC-257 melanoma"}, "HOP-62 NSCLC": {"test_system": "HOP-62 NSCLC"}, "MALME-3M melanoma": {"test_system": "MALME-3M melanoma"}, "MDA-MB-435": {"test_system": "MDA-MB-435"}, "T-47D breast": {"test_system": "T-47D breast"}, "SR leukemia": {"test_system": "SR leukemia"}, "TK-10 renal": {"test_system": "TK-10 renal"}, "HCT-116 colon": {"test_system": "HCT-116 colon"}, "A549 NSCLC": {"test_system": "A549 NSCLC"}, "LOX IMVI melanoma": {"test_system": "LOX IMVI melanoma"}, "HL-60(TB) leukemia": {"test_system": "HL-60(TB) leukemia"}, "NCI-H460 lung": {"test_system": "NCI-H460 lung"}, "HCT-15 colon": {"test_system": "HCT-15 colon"}, "RXF 393 renal": {"test_system": "RXF 393 renal"}, "BT-549 breast": {"test_system": "BT-549 breast"}, "SF-295 CNS": {"test_system": "SF-295 CNS"}, "MCF7 breast": {"test_system": "MCF7 breast"}, "KM12 colon": {"test_system": "KM12 colon"}, "NCI-H23 lung": {"test_system": "NCI-H23 lung"}, "OVCAR-3 ovarian": {"test_system": "OVCAR-3 ovarian"}, "CAKI-1 renal": {"test_system": "CAKI-1 renal"}, "IGROV1 ovarian": {"test_system": "IGROV1 ovarian"}, "SK-MEL-2 melanoma": {"test_system": "SK-MEL-2 melanoma"}, "RPMI-8226 leukemia": {"test_system": "RPMI-8226 leukemia"}, "HS 578T breast": {"test_system": "HS 578T breast"}},
  "note": "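Each compound was tested at five concentrations against cells in 96-well plates for 48 hours. Abbreviation: GI50, concentration required for 50% inhibition of growth. Definition used: TGI = concentration required for complete inhibition of growth.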",
  "data": [
    {"compound": "COC(=O)C[C@](O)(CCC(C)C)C(=O)O[C@H]1C(OC)=C[C@@]23CCCN2CCc2cc4c(cc2[C@@H]13)OCO4", "values": [
      {"measurement": "TGI", "setting": "OVCAR-5 ovarian", "value": "> 15.7", "unit": "µM"},
      {"measurement": "TGI", "setting": "MDA-MB-231 breast", "value": "> 17.8", "unit": "µM"},
      {"measurement": "GI50", "setting": "ACHN renal", "value": 3.59, "unit": "µM"},
      {"measurement": "TGI", "setting": "ACHN renal", "value": "> 10.9", "unit": "µM"},
      {"measurement": "GI50", "setting": "MOLT-4 leukemia", "value": 10.5, "unit": "µM"},
      {"measurement": "TGI", "setting": "MOLT-4 leukemia", "value": "> 40.5", "unit": "µM"},
      {"measurement": "TGI", "setting": "DU-145 prostate", "value": "> 13.8", "unit": "µM"},
      {"measurement": "GI50", "setting": "HCC-2998 colon", "value": 2.58, "unit": "µM"},
      {"measurement": "GI50", "setting": "MDA-MB-468 breast", "value": 1.8, "unit": "µM"},
      {"measurement": "TGI", "setting": "MDA-MB-468 breast", "value": "> 8.31", "unit": "µM"},
      {"measurement": "GI50", "setting": "HT29 colon", "value": 4.69, "unit": "µM"},
      {"measurement": "TGI", "setting": "HT29 colon", "value": "> 14", "unit": "µM"},
      {"measurement": "TGI", "setting": "786-0 renal", "value": "> 12.3", "unit": "µM"},
      {"measurement": "TGI", "setting": "OVCAR-4 ovarian", "value": "> 15.5", "unit": "µM"},
      {"measurement": "GI50", "setting": "SNB-19 CNS", "value": 3.91, "unit": "µM"},
      {"measurement": "TGI", "setting": "SNB-19 CNS", "value": "> 10.2", "unit": "µM"},
      {"measurement": "TGI", "setting": "SN12C renal", "value": "> 19.3", "unit": "µM"},
      {"measurement": "TGI", "setting": "COLO 205 colon", "value": "> 13.8", "unit": "µM"},
      {"measurement": "TGI", "setting": "OVCAR-8 ovarian", "value": "> 13.8", "unit": "µM"},
      {"measurement": "TGI", "setting": "U251 CNS", "value": "> 11.9", "unit": "µM"},
      {"measurement": "GI50", "setting": "NCI/ADR-RES ovarian", "value": 1.5, "unit": "µM"},
      {"measurement": "TGI", "setting": "NCI/ADR-RES ovarian", "value": 12, "unit": "µM"},
      {"measurement": "TGI", "setting": "SF-268 CNS", "value": "> 19.6", "unit": "µM"},
      {"measurement": "TGI", "setting": "SK-OV-3 ovarian", "value": "> 31", "unit": "µM"},
      {"measurement": "TGI", "setting": "HOP-92 NSCLC", "value": "> 11", "unit": "µM"},
      {"measurement": "TGI", "setting": "SW-620 colon", "value": "> 16.5", "unit": "µM"},
      {"measurement": "GI50", "setting": "CCRF-CEM leukemia", "value": 4.62, "unit": "µM"},
      {"measurement": "TGI", "setting": "CCRF-CEM leukemia", "value": "> 11.2", "unit": "µM"},
      {"measurement": "GI50", "setting": "SF-539 CNS", "value": 3.17, "unit": "µM"},
      {"measurement": "TGI", "setting": "SF-539 CNS", "value": "> 8.07", "unit": "µM"},
      {"measurement": "GI50", "setting": "NCI-H226 lung", "value": 2.57, "unit": "µM"},
      {"measurement": "TGI", "setting": "NCI-H226 lung", "value": "> 10.2", "unit": "µM"},
      {"measurement": "GI50", "setting": "NCI-H522 lung", "value": 3.3, "unit": "µM"},
      {"measurement": "TGI", "setting": "NCI-H522 lung", "value": "> 8.77", "unit": "µM"},
      {"measurement": "TGI", "setting": "UACC-62 melanoma", "value": "> 14.6", "unit": "µM"},
      {"measurement": "GI50", "setting": "K-562 leukemia", "value": 2.73, "unit": "µM"},
      {"measurement": "TGI", "setting": "K-562 leukemia", "value": "> 40.5", "unit": "µM"},
      {"measurement": "TGI", "setting": "A498 renal", "value": "> 9.75", "unit": "µM"},
      {"measurement": "TGI", "setting": "SK-MEL-28 melanoma", "value": "> 10.6", "unit": "µM"},
      {"measurement": "TGI", "setting": "EKVX NSCLC", "value": "> 16.8", "unit": "µM"},
      {"measurement": "TGI", "setting": "PC-3 prostate", "value": "> 13.4", "unit": "µM"},
      {"measurement": "TGI", "setting": "SNB-75 CNS", "value": "> 11", "unit": "µM"},
      {"measurement": "TGI", "setting": "UO-31 renal", "value": "> 14.8", "unit": "µM"},
      {"measurement": "TGI", "setting": "UACC-257 melanoma", "value": "> 12.7", "unit": "µM"},
      {"measurement": "TGI", "setting": "HOP-62 NSCLC", "value": "> 21.9", "unit": "µM"},
      {"measurement": "GI50", "setting": "MALME-3M melanoma", "value": 3.62, "unit": "µM"},
      {"measurement": "TGI", "setting": "MALME-3M melanoma", "value": "> 8.33", "unit": "µM"},
      {"measurement": "TGI", "setting": "MDA-MB-435", "value": "> 14.4", "unit": "µM"},
      {"measurement": "TGI", "setting": "T-47D breast", "value": "> 22.9", "unit": "µM"},
      {"measurement": "GI50", "setting": "SR leukemia", "value": 17.1, "unit": "µM"},
      {"measurement": "TGI", "setting": "SR leukemia", "value": "> 40.5", "unit": "µM"},
      {"measurement": "GI50", "setting": "TK-10 renal", "value": "> 8", "unit": "µM"},
      {"measurement": "TGI", "setting": "TK-10 renal", "value": "> 37.1", "unit": "µM"},
      {"measurement": "GI50", "setting": "HCT-116 colon", "value": 16.8, "unit": "µM"},
      {"measurement": "TGI", "setting": "HCT-116 colon", "value": "> 40.5", "unit": "µM"},
      {"measurement": "TGI", "setting": "A549 NSCLC", "value": "> 13.6", "unit": "µM"},
      {"measurement": "GI50", "setting": "LOX IMVI melanoma", "value": 2.54, "unit": "µM"},
      {"measurement": "GI50", "setting": "HL-60(TB) leukemia", "value": 2.4, "unit": "µM"},
      {"measurement": "GI50", "setting": "NCI-H460 lung", "value": 1.51, "unit": "µM"},
      {"measurement": "GI50", "setting": "HCT-15 colon", "value": 4.08, "unit": "µM"},
      {"measurement": "TGI", "setting": "HCT-15 colon", "value": "> 9.64", "unit": "µM"},
      {"measurement": "GI50", "setting": "RXF 393 renal", "value": 2.65, "unit": "µM"},
      {"measurement": "TGI", "setting": "BT-549 breast", "value": "> 10.1", "unit": "µM"},
      {"measurement": "TGI", "setting": "SF-295 CNS", "value": "> 11.2", "unit": "µM"},
      {"measurement": "GI50", "setting": "MCF7 breast", "value": 1.37, "unit": "µM"},
      {"measurement": "TGI", "setting": "KM12 colon", "value": "> 15.6", "unit": "µM"},
      {"measurement": "TGI", "setting": "NCI-H23 lung", "value": "> 9.5", "unit": "µM"},
      {"measurement": "TGI", "setting": "OVCAR-3 ovarian", "value": "> 12.9", "unit": "µM"},
      {"measurement": "TGI", "setting": "CAKI-1 renal", "value": "> 25.1", "unit": "µM"},
      {"measurement": "TGI", "setting": "IGROV1 ovarian", "value": "> 15.1", "unit": "µM"},
      {"measurement": "GI50", "setting": "SK-MEL-2 melanoma", "value": 1.62, "unit": "µM"},
      {"measurement": "TGI", "setting": "SK-MEL-2 melanoma", "value": 8.71, "unit": "µM"},
      {"measurement": "TGI", "setting": "RPMI-8226 leukemia", "value": "> 8.64", "unit": "µM"},
      {"measurement": "TGI", "setting": "HS 578T breast", "value": "> 11.1", "unit": "µM"}
    ]}
  ]
}
